Earlier results on 1 compound are cited in patent publication US6462233B1, “Process for the preparation of sorbic acid” (Daicel Chemical Industries, Ltd., priority 1998, dated 2002).

For this data set the following is noted: hot water around 100° C.

`C/C=C/C=C/C(=O)O` [sorbic acid]: the “solubility of sorbic acid” value is on record as “at most 3%”.
